In patent publication US8809001B2, “High throughput assays for inhibitors and activators of PAQR receptors” (University of Florida Research Foundation, Inc., priority 2007, dated 2014):

How the values were obtained:
AdipoR2 = assay: FET3-lacZ (pFET3-397) reporter repression in yeast expressing AdipoR2; type: cell-based, human; details: concentrations as high as 10 μM
From the text: IZH1-4 were cloned into pRS316-GAL1 via gap repair as previously described (Lyons et al., 2004). The triple hemaglutinin epitope (3×HA) tagged construct of the IZH2 gene was generated by replacing the ZRC1 promoter and open reading frame in the YCpZRC1-HA plasmid (MacDiarmid et al., 2002) with those of IZH2. This was accomplished by gap repair of Age I-digested YCpZRC1-HA to generate pIZH2-3×HA. This construct has the IZH2 gene driven by its native promoter and retains the ZRC1 terminator sequence. The native IZH2 promoter was then exchanged with the GAL1 promoter using gap repair of pIZH2-3×HA plasmids cut with EcoN I. AdipoR1 and AdipoR2 were amplified from cDNAs obtained from OpenBiosystems (Accession #: BC010743 and BC051858, respectively). PCR products were cloned into NcoI/BamHI digested pYES260 vector (Melcher, 2000) by gap repair allowing for GAL1-driven expression. Plasmids containing GAL1-driven the TAP (Tandem Affinity Purification) tagged NRG1 and NRG2 constructs were purchased from OpenBiosystems.
Most experiments were performed in a defined EDTA-containing medium known as low iron medium (LIM) (Eide et al., 1992). Iron-deficiency and repletion were generated by adding either 1 μM or 1 mM of FeCl3, respectively, to LIM. 2% galactose was used to fully induce GAL1-driven gene overexpression. Total sugar concentration was maintained at 2% by the addition of raffinose in those experiments in which the % galactose was modulated to decrease expression levels. Cells were allowed to grow to mid-log phase in LIM and β-galactosidase assays on permeabilized yeast were performed as previously described (Lyons et al., 2000). […]
(§1) Assays and growth conditions. […] Cells were allowed to grow to mid-log phase at which time the activity of the FET3 gene was monitored using a FET3-lacZ promoter-reporter construct. lacZ activities are presented as a percentage of activity seen in untreated cells expressing the appropriate empty expression vector control. […]

Class II PAQRs = assay: FET3-lacZ response of the human PAQR panel to 10 μM progesterone: Class II; type: cell-based
From the text: (§2) Plasmids and primers. Human PAQRs were cloned into various vectors by PCR from commercially/publically available cDNAs. PAQRs were cloned into the pYES260 (Melcher, 2000), pRS316 (Liu et al., 1992) or pGREG536 (Jansen et al., 2005) expression vectors using gap repair. The pJK90 plasmid containing a Dual Topology Reporter (DTR)-tagged OST4 gene driven by the constitutive TPI1 promoter was kindly provided by Dr. Gunnar von Heijne (Stockholm University) (Kim et al., 2003). The OST4 open reading frame in pJK90 was replaced with the PAQR6 and mPRα open reading frames by gap repair. Primers for all cloning reactions are listed herein. Proteins expressed in pYES260 have an N-terminal 6×-histidine tag followed by a TEV protease cleavage site. Proteins expressed in pGREG536 have an N-terminal 7×-HA tag. Proteins expressed in the pRS316 vector are untagged. The pYES260, pRS316 and pGREG536 vectors allow for galactose-inducible expression via the GAL1 promoter. […] The FET3-lacZ plasmid was previously described (Kupchak et al., 2007). […]
as §1

[1] = tested on: receptors in Classes I and III; assay: FET3-lacZ response of the human PAQR panel to 10 μM progesterone: Classes I and III; type: cell-based
From the text: as §2, §1

mPRs = details: determined by Thomas et al. (2008); read-out: Kd for progesterone binding to mPRs; cited from earlier work

CC(=O)[C@H]1CC[C@H]2[C@@H]3CCC4=CC(=O)CC[C@]4(C)[C@H]3CC[C@]12C [Progesterone, progesterone]
response of AdipoR2 to progesterone (AdipoR2): do not respond
agonist effect on all five Class II PAQRs (Class II PAQRs): effective agonist
agonist effect on receptors in Classes I and III [1]: ineffective
Kd (mPRs): ~5 nM
